Assay results as given in publication PMC10449631 (Nature Chemical Biology, 2023).
No end group written: not given here.

Tests used:
PaAP variant R194A [1] = experiment: biochemical; set-up: species or system Pseudomonas aeruginosa; settings: compared to full-length PaAP
Experimental: (§1) To test this, we produced the PaAP variant R194A to eliminate a likely salt bridge between the peptide COOH and the guanidinium of the protein arginine side chain.
(§2) Inhibition assays were carried out with the following peptides: linear-[…] (PaAP C-terminal residues), cyclic-[…], N-acetylated and C-amidated […]. IC50 values were determined by varying peptide concentration at a fixed substrate concentration (fixed at KM, (S) = 2 mM, PaAP concentration was 100 nM). KI was determined by assaying multiple fixed inhibitor concentrations (1,000 nM, 500 nM, 250 nM, 100 nM, 50 nM, 25 nM and 10 nM) at varying substrate concentrations under standard reaction conditions with Leu-pNA as a substrate (outlined above). KI values were determined by fitting the data to equation (1) (Morrison’s equation):1 v=1−Et+I+KI−Et+I+KI^2−4EtIKI/2Et where v is the velocity, Et is the total enzyme concentration, I is the concentration of inhibitor and KI is the equilibrium dissociation constant for the inhibitor.

PaAP variant R194A [2] = biological target: T1, PaAP variant R194A (Pseudomonas aeruginosa, UniProt Q02PA2, R194A); experiment: biochemical
T1 construct: PaAP (WT, residues 27–536); His6 (TEV cleavable) (N, cleaved yes); made in house; host or cells: E. coli SHuffle T7
Experimental: as §1, §2

T1 sequence (Q02PA2 37-516, looked up, stated change not applied): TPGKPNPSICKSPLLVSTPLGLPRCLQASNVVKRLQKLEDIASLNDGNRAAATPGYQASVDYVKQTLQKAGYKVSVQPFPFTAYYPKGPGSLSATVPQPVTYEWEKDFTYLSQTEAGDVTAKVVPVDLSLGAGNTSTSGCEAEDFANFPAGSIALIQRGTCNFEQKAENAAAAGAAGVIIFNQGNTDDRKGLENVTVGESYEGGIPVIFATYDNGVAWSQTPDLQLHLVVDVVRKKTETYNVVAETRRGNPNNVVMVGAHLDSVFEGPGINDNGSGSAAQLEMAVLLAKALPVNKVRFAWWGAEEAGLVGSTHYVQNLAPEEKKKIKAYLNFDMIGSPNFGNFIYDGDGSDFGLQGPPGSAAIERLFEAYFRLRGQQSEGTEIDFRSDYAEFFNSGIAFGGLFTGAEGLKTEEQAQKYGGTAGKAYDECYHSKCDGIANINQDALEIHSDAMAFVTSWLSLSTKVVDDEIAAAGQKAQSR

Question: What does the source list for ERWGHDFIK [linear-ERWGHDFIK]?
Answer: fold increase of IC50 with R194A variant (PaAP variant R194A [1]): 100 fold; IC50 (PaAP variant R194A [2]): 306 µM
